This is an account of results in ChEMBL document CHEMBL1909046, “DrugMatrix in vitro pharmacology data”.

Chain of Beta-1 adrenergic receptor (P08588 whole entry): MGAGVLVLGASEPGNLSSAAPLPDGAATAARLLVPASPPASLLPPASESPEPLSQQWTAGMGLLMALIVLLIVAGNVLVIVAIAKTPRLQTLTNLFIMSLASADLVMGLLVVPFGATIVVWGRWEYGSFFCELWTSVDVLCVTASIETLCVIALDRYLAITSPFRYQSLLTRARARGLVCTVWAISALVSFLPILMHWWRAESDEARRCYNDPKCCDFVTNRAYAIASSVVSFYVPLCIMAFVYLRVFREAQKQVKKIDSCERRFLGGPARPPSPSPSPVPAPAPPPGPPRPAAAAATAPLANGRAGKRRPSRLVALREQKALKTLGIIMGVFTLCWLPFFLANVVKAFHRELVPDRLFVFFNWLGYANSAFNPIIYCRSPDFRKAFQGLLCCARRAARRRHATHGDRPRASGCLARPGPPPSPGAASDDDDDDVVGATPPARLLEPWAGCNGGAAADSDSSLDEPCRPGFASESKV
Chain of Mu-type opioid receptor (P35372 whole entry): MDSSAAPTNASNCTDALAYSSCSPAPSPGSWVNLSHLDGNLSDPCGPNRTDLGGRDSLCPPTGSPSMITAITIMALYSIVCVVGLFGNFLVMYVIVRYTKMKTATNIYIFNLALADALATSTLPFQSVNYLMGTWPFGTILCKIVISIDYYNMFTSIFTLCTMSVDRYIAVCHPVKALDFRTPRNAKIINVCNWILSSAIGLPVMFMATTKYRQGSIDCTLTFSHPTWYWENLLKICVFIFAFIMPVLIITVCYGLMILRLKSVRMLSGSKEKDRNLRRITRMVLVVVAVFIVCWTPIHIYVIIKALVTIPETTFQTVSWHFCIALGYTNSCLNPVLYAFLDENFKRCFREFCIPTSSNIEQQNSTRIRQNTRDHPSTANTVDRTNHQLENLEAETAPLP

The first assay concerns the target Beta-1 adrenergic receptor (Homo sapiens, UniProt P08588). Nature of the assay: DRUGMATRIX: Adrenergic beta1 radioligand binding (ligand: [125I] Cyanopindolol). The assay is classed as cell membranes, CHO-K1, Membrane. Conditions: cho-k1; Not Active = under 50% inhibition at 10 µM.
For the molecule `NCC1(CC(=O)O)CCCCC1` [GABAPENTIN], the IC50 result is recorded as “Not Active”.
Same read-out and setting: then `CN1C(C(=O)Nc2ccccn2)=C(O)c2ccccc2S1(=O)=O` [PIROXICAM], with “Not Active”.

Test system in a further assay: not listed separately
In words: DRUGMATRIX: beta-Lactamase enzyme inhibition (substrate: Nitrocefin). Set-up: species or system Bacillus cereus. The following applies: Not Active = under 50% inhibition at 10 µM.
`NCC1(CC(=O)O)CCCCC1` [GABAPENTIN]: the IC50 entry is recorded as “Not Active” and the Ki result is on record as “Not Active”.
For the molecule `CN1C(C(=O)Nc2ccccn2)=C(O)c2ccccc2S1(=O)=O` [PIROXICAM], the IC50 entry is “Not Active” and the Ki result is recorded as “Not Active”.

In a further assay the target is T1, 5-hydroxytryptamine receptor 2C (Homo sapiens, UniProt P28335).
T1 sequence (P28335 whole entry): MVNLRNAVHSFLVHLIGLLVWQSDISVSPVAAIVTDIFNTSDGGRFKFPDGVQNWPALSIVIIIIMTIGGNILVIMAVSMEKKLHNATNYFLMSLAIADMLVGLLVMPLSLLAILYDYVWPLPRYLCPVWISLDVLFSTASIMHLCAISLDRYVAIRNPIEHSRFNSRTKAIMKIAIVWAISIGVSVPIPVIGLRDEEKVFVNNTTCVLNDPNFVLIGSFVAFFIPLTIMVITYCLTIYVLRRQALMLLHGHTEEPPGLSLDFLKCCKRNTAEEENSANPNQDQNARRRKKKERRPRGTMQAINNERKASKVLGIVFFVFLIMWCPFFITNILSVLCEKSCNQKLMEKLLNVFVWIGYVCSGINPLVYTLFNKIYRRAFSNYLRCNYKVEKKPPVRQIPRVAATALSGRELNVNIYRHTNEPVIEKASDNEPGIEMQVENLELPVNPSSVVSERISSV
In words: DRUGMATRIX: Serotonin (5-Hydroxytryptamine) 5-HT2C radioligand binding (ligand: [3H] Mesulergine). It counts as cell membranes, CHO-K1, Membrane. Conditions: cho-k1; Not Active = under 50% inhibition at 10 µM.
Regarding `NCC1(CC(=O)O)CCCCC1` [GABAPENTIN], the IC50 entry is on record as “Not Active”.
`CN1C(C(=O)Nc2ccccn2)=C(O)c2ccccc2S1(=O)=O` [PIROXICAM]: the IC50 entry is “Not Active”.

Test system in another assay: not listed separately
In words: DRUGMATRIX: Sigma2 radioligand binding (ligand: [3H] Ifenprodil). The assay is classed as cell membranes, Rattus norvegicus, Wistar, Brain, Membrane. The following applies: Not Active = under 50% inhibition at 10 µM.
For the molecule `NCC1(CC(=O)O)CCCCC1` [GABAPENTIN], the IC50 entry is recorded as “Not Active” and the Ki result is recorded as “Not Active”.
Regarding `CN1C(C(=O)Nc2ccccn2)=C(O)c2ccccc2S1(=O)=O` [PIROXICAM], the IC50 entry is listed as “Not Active” and the Ki entry is “Not Active”.

For a further assay, the target named is T2, D(4) dopamine receptor (Homo sapiens, UniProt P21917).
T2 sequence (P21917 whole entry): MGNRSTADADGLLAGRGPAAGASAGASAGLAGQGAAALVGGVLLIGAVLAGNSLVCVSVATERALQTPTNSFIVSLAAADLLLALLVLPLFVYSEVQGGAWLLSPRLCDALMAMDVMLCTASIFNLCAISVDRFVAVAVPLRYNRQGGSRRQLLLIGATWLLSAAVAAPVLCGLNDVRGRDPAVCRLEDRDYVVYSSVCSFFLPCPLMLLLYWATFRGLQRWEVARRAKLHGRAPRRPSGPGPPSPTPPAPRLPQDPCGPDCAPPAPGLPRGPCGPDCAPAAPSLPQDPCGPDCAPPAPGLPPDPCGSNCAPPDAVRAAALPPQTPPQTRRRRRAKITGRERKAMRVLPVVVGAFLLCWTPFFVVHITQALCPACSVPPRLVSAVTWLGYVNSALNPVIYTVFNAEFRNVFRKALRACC
Nature of the assay: DRUGMATRIX: Dopamine D4.2 radioligand binding (ligand: [3H] Spiperone). The assay is classed as cell membranes, CHO-K1, Membrane. The following applies: cho-k1; Not Active = under 50% inhibition at 10 µM.
In the case of `NCC1(CC(=O)O)CCCCC1` [GABAPENTIN], the IC50 result is given as “Not Active”.
Still for that read-out and setting: with `CN1C(C(=O)Nc2ccccn2)=C(O)c2ccccc2S1(=O)=O` [PIROXICAM] the entry was “Not Active”.

Test system in the next assay: not listed separately
Nature of the assay: DRUGMATRIX: Leukotriene, BLT (LTB4) radioligand binding (ligand: [3H]LTB4). The following applies: u-937; Not Active = under 50% inhibition at 10 µM. It counts as cell membranes, Membrane.
In the case of `NCC1(CC(=O)O)CCCCC1` [GABAPENTIN], the IC50 result is “Not Active” and the Ki entry was “Not Active”.
For `CN1C(C(=O)Nc2ccccn2)=C(O)c2ccccc2S1(=O)=O` [PIROXICAM], the IC50 entry is “Not Active” and the Ki result is on record as “Not Active”.

In a further assay the target is T3, Cysteinyl leukotriene receptor 1 (Homo sapiens, UniProt Q9Y271). Also: in other assays of this panel Not Active means under 50% inhibition at 10 µM.
T3 sequence (Q9Y271 whole entry): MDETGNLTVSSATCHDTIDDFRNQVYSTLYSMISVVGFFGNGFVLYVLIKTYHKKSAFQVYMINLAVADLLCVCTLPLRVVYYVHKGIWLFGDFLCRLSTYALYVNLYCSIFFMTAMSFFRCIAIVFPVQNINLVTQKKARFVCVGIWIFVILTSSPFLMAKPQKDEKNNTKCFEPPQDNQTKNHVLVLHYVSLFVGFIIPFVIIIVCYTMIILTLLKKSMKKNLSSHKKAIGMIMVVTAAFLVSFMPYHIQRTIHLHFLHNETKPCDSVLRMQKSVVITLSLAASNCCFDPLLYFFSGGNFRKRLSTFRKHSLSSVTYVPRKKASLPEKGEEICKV
Assay: not given
It counts as cell membranes, CHO-K1, Membrane. Conditions: cho-k1.
Turning to `NCC1(CC(=O)O)CCCCC1` [GABAPENTIN], the IC50 result is given as “Not Active”.
Same read-out and setting: with `CN1C(C(=O)Nc2ccccn2)=C(O)c2ccccc2S1(=O)=O` [PIROXICAM] the entry was “Not Active”.

The target in the next assay is Melanocortin receptor 4 (Homo sapiens, UniProt P32245). Also: in other assays of this panel Not Active means under 50% inhibition at 10 µM.
Chain of Melanocortin receptor 4 (P32245 whole entry): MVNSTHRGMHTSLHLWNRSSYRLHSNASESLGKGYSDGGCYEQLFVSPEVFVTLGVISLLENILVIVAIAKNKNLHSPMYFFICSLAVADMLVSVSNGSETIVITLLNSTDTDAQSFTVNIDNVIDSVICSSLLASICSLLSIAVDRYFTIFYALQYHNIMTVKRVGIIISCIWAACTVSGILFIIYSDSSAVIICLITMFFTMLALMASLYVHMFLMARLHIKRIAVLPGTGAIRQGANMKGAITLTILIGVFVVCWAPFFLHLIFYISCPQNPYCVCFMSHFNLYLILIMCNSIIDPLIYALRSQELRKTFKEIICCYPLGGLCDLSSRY
Assay: not given
It counts as cell membranes, Membrane. Conditions: hek293.
As to `NCC1(CC(=O)O)CCCCC1` [GABAPENTIN], the IC50 entry is reported as “Not Active”.
The same measure, in the same setting: with `CN1C(C(=O)Nc2ccccn2)=C(O)c2ccccc2S1(=O)=O` [PIROXICAM] the entry was “Not Active”.

The target in another assay is Melanocortin receptor 5 (Homo sapiens, UniProt P33032). Also: in other assays of this panel Not Active means under 50% inhibition at 10 µM.
Chain of Melanocortin receptor 5 (P33032 whole entry): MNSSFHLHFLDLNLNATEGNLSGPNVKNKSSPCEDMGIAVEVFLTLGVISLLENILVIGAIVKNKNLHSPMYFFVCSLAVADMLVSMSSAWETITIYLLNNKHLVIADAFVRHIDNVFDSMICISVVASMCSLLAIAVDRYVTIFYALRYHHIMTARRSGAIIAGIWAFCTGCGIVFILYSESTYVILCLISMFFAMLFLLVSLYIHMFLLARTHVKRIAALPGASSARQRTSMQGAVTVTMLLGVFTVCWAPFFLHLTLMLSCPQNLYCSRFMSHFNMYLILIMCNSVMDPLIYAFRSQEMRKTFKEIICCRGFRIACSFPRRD
Assay: not given
The assay is classed as cell membranes, HEK293, Membrane. The following applies: hek293.
As to `NCC1(CC(=O)O)CCCCC1` [GABAPENTIN], the IC50 entry is “Not Active”.
Same read-out and setting: then `CN1C(C(=O)Nc2ccccn2)=C(O)c2ccccc2S1(=O)=O` [PIROXICAM], with “Not Active”.

The next assay addresses Mu-type opioid receptor (Homo sapiens, UniProt P35372). In words: DRUGMATRIX: Opiate mu (OP3, MOP) radioligand binding (ligand: [3H] Diprenorphine). The assay is classed as cell membranes, CHO-K1, Membrane. Conditions: cho-k1; Not Active = under 50% inhibition at 10 µM.
Take `NCC1(CC(=O)O)CCCCC1` [GABAPENTIN]: the IC50 result is “Not Active”.
Same read-out and setting: then `CN1C(C(=O)Nc2ccccn2)=C(O)c2ccccc2S1(=O)=O` [PIROXICAM], with “Not Active”.

The target of the next assay is T4, Caspase-1 (Homo sapiens, UniProt P29466).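 Also: Caspase-1 enzyme inhibition assay with a peptide substrate; in other assays of this panel Not Active means under 50% inhibition at 10 µM.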
T4 sequence (P29466 whole entry): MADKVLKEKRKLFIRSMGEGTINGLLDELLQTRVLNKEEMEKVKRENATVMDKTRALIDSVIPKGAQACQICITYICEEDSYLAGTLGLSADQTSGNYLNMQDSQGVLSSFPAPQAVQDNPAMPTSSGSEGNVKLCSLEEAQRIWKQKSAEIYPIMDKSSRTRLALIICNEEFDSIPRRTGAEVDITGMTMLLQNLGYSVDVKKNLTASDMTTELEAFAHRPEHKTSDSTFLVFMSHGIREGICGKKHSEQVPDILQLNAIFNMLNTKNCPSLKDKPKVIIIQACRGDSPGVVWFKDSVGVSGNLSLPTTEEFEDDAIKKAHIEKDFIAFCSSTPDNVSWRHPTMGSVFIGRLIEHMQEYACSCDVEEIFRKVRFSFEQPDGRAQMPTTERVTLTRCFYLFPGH
Assay: not given
Also noted: species or system Escherichia coli.
Conditions: not given
Consider `NCC1(CC(=O)O)CCCCC1` [GABAPENTIN], for which the IC50 result is on record as “Not Active”.
On the same count and under the same terms, then `CN1C(C(=O)Nc2ccccn2)=C(O)c2ccccc2S1(=O)=O` [PIROXICAM], with “Not Active”.

The target in the next assay is T5, Cathepsin G (Homo sapiens, UniProt P08311).
T5 sequence (P08311 whole entry): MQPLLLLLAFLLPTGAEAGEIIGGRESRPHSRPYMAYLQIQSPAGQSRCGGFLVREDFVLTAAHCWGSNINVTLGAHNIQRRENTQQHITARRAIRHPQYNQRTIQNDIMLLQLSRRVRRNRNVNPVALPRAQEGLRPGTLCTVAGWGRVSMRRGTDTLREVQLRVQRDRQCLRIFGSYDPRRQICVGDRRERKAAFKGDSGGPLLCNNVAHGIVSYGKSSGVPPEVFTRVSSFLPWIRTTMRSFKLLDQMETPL
Assay: not given
Conditions: neutrophil. It counts as tissue-based.
For the molecule `NCC1(CC(=O)O)CCCCC1` [GABAPENTIN], the IC50 entry is on record as “Not Active”.
Still for that read-out and setting: then `CN1C(C(=O)Nc2ccccn2)=C(O)c2ccccc2S1(=O)=O` [PIROXICAM], with “Not Active”.

The target in a further assay is Epidermal growth factor receptor (Homo sapiens, UniProt P00533). Nature of the assay: DRUGMATRIX: Protein Tyrosine Kinase, EGF Receptor enzyme inhibition (substrate: Poly(Glu:Tyr)). The assay is classed as cell-based, Insect cells. The following applies: insect cells; Not Active = under 50% inhibition at 10 µM.
Chain of Epidermal growth factor receptor (P00533 whole entry): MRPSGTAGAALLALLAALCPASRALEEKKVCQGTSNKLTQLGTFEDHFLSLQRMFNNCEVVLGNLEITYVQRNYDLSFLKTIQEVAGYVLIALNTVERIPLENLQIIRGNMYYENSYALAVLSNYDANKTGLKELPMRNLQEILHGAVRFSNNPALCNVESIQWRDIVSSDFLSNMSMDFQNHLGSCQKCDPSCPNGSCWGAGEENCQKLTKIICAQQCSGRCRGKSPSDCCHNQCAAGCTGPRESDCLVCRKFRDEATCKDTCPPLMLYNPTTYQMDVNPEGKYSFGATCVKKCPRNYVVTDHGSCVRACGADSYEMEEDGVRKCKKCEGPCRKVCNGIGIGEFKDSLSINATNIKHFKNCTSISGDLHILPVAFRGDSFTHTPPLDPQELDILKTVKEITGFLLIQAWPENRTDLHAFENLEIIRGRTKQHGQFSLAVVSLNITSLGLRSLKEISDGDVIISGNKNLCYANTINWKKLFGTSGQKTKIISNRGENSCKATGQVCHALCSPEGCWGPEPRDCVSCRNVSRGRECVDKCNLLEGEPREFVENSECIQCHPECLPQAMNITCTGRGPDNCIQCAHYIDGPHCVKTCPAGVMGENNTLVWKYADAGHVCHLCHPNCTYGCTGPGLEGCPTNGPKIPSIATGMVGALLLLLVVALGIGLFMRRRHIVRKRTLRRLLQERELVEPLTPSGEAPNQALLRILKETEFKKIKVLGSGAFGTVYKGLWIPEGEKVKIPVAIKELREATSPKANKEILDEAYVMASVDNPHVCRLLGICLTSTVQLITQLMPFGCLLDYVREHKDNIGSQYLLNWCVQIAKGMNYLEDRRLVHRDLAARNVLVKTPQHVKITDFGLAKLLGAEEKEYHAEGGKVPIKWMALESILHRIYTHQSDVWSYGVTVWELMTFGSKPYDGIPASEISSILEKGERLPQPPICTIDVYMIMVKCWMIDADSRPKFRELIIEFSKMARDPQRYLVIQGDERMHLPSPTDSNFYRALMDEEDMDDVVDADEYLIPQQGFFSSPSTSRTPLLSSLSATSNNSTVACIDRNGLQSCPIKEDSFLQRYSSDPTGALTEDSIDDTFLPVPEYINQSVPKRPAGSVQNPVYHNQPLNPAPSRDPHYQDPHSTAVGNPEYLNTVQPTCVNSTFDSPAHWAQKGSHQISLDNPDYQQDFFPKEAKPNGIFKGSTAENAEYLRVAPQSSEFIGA
Turning to `NCC1(CC(=O)O)CCCCC1` [GABAPENTIN], the IC50 entry is “Not Active”.
Same read-out and setting: then `CN1C(C(=O)Nc2ccccn2)=C(O)c2ccccc2S1(=O)=O` [PIROXICAM], with “Not Active”.

In the next assay the target is Tyrosine-protein kinase Fyn (Homo sapiens, UniProt P06241). Nature of the assay: biochemical. The assay is classed as cell-based, Insect cells. The following applies: insect cells.
Chain of Tyrosine-protein kinase Fyn (P06241 whole entry): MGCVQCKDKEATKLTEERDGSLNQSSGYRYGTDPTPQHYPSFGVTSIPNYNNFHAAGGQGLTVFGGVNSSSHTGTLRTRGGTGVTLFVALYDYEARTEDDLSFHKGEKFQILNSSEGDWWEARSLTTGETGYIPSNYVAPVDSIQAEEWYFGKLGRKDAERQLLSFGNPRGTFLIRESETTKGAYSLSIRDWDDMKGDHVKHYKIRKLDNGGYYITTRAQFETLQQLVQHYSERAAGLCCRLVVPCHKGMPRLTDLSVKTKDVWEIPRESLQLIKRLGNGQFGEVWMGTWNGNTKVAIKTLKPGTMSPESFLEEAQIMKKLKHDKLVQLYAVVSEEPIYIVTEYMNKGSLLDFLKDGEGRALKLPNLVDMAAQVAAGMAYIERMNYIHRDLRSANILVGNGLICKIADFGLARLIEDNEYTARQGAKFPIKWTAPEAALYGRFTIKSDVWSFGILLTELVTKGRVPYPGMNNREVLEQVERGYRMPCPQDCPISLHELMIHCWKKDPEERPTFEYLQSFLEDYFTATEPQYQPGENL
Take `NCC1(CC(=O)O)CCCCC1` [GABAPENTIN]: the IC50 result is “Not Active”.
In the case of `CN1C(C(=O)Nc2ccccn2)=C(O)c2ccccc2S1(=O)=O` [PIROXICAM], the IC50 result is on record as “Not Active”.

Test system in a further assay: not listed separately
Nature of the assay: DRUGMATRIX: Purinergic P2X radioligand binding (ligand: [3H] alpha, beta-Methylene-ATP). It counts as cell membranes, Oryctolagus cuniculus, New Zealand albino, Urinary bladder, Membrane. The following applies: Not Active = under 50% inhibition at 10 µM.
On to `NCC1(CC(=O)O)CCCCC1` [GABAPENTIN], for which the IC50 result is listed as “Not Active” and the Ki entry is recorded as “Not Active”.
On to `CN1C(C(=O)Nc2ccccn2)=C(O)c2ccccc2S1(=O)=O` [PIROXICAM], for which the IC50 result is reported as “Not Active” and the Ki entry is “Not Active”.

For a further assay, the target named is 5-hydroxytryptamine receptor 1B (Rattus norvegicus, UniProt P28564). Also: in other assays of this panel Not Active means under 50% inhibition at 10 µM.
Chain of 5-hydroxytryptamine receptor 1B (P28564 whole entry): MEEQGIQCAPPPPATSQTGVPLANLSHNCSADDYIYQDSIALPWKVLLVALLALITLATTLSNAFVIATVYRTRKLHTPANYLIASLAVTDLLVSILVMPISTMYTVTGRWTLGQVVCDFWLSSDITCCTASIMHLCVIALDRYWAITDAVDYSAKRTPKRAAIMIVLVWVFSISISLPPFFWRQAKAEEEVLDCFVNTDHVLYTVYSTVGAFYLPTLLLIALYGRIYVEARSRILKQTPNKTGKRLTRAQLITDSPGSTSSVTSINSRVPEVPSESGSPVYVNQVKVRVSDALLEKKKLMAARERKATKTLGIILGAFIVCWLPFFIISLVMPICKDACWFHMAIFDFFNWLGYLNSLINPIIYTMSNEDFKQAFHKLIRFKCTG
Assay: not given
It counts as cell membranes, Wistar, Cerebral cortex, Membrane.
Conditions: not given
As to `NCC1(CC(=O)O)CCCCC1` [GABAPENTIN], the IC50 result was “Not Active”.
Take `CN1C(C(=O)Nc2ccccn2)=C(O)c2ccccc2S1(=O)=O` [PIROXICAM]: the IC50 result is reported as “Not Active”.
